Experimental data published in PubChem BioAssay (NCI).
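Cultured in 96-well plates, cells were exposed to test compound for 48 hours across five concentrations. Abbreviation: GI50, concentration required for 50% inhibition of growth. TGI: total growth inhibition.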

Columns and labels:
Assay in all cases: NCI tumour cell line growth inhibition, 48 h
IGROV1 ovarian = test system: IGROV1 ovarian
M14 melanoma = test system: M14 melanoma
HOP-62 NSCLC = test system: HOP-62 NSCLC
MDA-MB-435 = test system: MDA-MB-435
SF-268 CNS = test system: SF-268 CNS
SK-MEL-5 melanoma = test system: SK-MEL-5 melanoma
MOLT-4 leukemia = test system: MOLT-4 leukemia
HCT-15 colon = test system: HCT-15 colon
T-47D breast = test system: T-47D breast
HOP-92 NSCLC = test system: HOP-92 NSCLC
SF-295 CNS = test system: SF-295 CNS
HT29 colon = test system: HT29 colon
SK-OV-3 ovarian = test system: SK-OV-3 ovarian
CAKI-1 renal = test system: CAKI-1 renal
OVCAR-3 ovarian = test system: OVCAR-3 ovarian
SK-MEL-28 melanoma = test system: SK-MEL-28 melanoma
UO-31 renal = test system: UO-31 renal
OVCAR-5 ovarian = test system: OVCAR-5 ovarian
SNB-75 CNS = test system: SNB-75 CNS
UACC-62 melanoma = test system: UACC-62 melanoma
CCRF-CEM leukemia = test system: CCRF-CEM leukemia
KM12 colon = test system: KM12 colon
RXF 393 renal = test system: RXF 393 renal
PC-3 prostate = test system: PC-3 prostate
NCI-H460 lung = test system: NCI-H460 lung
SW-620 colon = test system: SW-620 colon
RPMI-8226 leukemia = test system: RPMI-8226 leukemia
NCI-H23 lung = test system: NCI-H23 lung
LOX IMVI melanoma = test system: LOX IMVI melanoma
NCI-H522 lung = test system: NCI-H522 lung
NCI/ADR-RES ovarian = test system: NCI/ADR-RES ovarian
SNB-19 CNS = test system: SNB-19 CNS
U251 CNS = test system: U251 CNS
MDA-MB-231 breast = test system: MDA-MB-231 breast
MALME-3M melanoma = test system: MALME-3M melanoma
COLO 205 colon = test system: COLO 205 colon
OVCAR-8 ovarian = test system: OVCAR-8 ovarian
HL-60(TB) leukemia = test system: HL-60(TB) leukemia
DU-145 prostate = test system: DU-145 prostate
NCI-H226 lung = test system: NCI-H226 lung
SF-539 CNS = test system: SF-539 CNS
A549 NSCLC = test system: A549 NSCLC
SR leukemia = test system: SR leukemia
HCC-2998 colon = test system: HCC-2998 colon
UACC-257 melanoma = test system: UACC-257 melanoma
786-0 renal = test system: 786-0 renal
EKVX NSCLC = test system: EKVX NSCLC
OVCAR-4 ovarian = test system: OVCAR-4 ovarian
TK-10 renal = test system: TK-10 renal
SN12C renal = test system: SN12C renal
ACHN renal = test system: ACHN renal
HCT-116 colon = test system: HCT-116 colon
MCF7 breast = test system: MCF7 breast
SK-MEL-2 melanoma = test system: SK-MEL-2 melanoma
BT-549 breast = test system: BT-549 breast
HS 578T breast = test system: HS 578T breast
K-562 leukemia = test system: K-562 leukemia
A498 renal = test system: A498 renal

Compound `O=C(O[C@H]1CN[C@H](C#Cc2cc3ncnc(Nc4ccc5c(cnn5Cc5ccccc5)c4)c3s2)C1)N1CCOCC1` has a GI50 (IGROV1 ovarian) of 0.805 µM, a TGI (IGROV1 ovarian) of over 18.7 µM and a GI50 (M14 melanoma) of 5.22 µM. The TGI (M14 melanoma) was over 25 µM, the GI50 (HOP-62 NSCLC) was 4.86 µM and the TGI (HOP-62 NSCLC) was over 25 µM. It also gave a GI50 (MDA-MB-435) of 6.08 µM, a TGI (MDA-MB-435) of over 25 µM and a GI50 (SF-268 CNS) of 4.43 µM. For the same compound, the TGI (SF-268 CNS) was 24.5 µM, the GI50 (SK-MEL-5 melanoma) was 6.18 µM and the TGI (SK-MEL-5 melanoma) was over 25 µM. It also gave a GI50 (MOLT-4 leukemia) of 4.22 µM, a TGI (MOLT-4 leukemia) of over 23.6 µM and a GI50 (HCT-15 colon) of 2.37 µM. It also gave a TGI (HCT-15 colon) of over 25 µM, a GI50 (T-47D breast) of 2.89 µM and a TGI (T-47D breast) of over 25 µM. It also gave a GI50 (HOP-92 NSCLC) of 1.29 µM, a TGI (HOP-92 NSCLC) of over 25 µM and a GI50 (SF-295 CNS) of 7.49 µM. For the same compound, the TGI (SF-295 CNS) was over 25 µM, the GI50 (HT29 colon) was 3.92 µM and the TGI (HT29 colon) was 11.5 µM. For the same compound, the GI50 (SK-OV-3 ovarian) was 0.0182 µM, the TGI (SK-OV-3 ovarian) was over 12.7 µM and the GI50 (CAKI-1 renal) was 0.602 µM. The TGI (CAKI-1 renal) was over 11.3 µM, the GI50 (OVCAR-3 ovarian) was 3.1 µM and the TGI (OVCAR-3 ovarian) was 10.6 µM. It also gave a GI50 (SK-MEL-28 melanoma) of 9.34 µM, a TGI (SK-MEL-28 melanoma) of over 25 µM and a GI50 (UO-31 renal) of 0.536 µM. It also gave a TGI (UO-31 renal) of 13.3 µM, a GI50 (OVCAR-5 ovarian) of 1.64 µM and a TGI (OVCAR-5 ovarian) of over 25 µM. It also gave a GI50 (SNB-75 CNS) of 2.01 µM, a TGI (SNB-75 CNS) of over 23 µM and a GI50 (UACC-62 melanoma) of 5.74 µM. It also gave a TGI (UACC-62 melanoma) of over 25 µM, a GI50 (CCRF-CEM leukemia) of 3.15 µM and a TGI (CCRF-CEM leukemia) of over 25 µM. For the same compound, the GI50 (KM12 colon) was 4.63 µM, the TGI (KM12 colon) was 10.5 µM and the GI50 (RXF 393 renal) was 1.15 µM. For the same compound, the TGI (RXF 393 renal) was 11.5 µM, the GI50 (PC-3 prostate) was 7.36 µM and the TGI (PC-3 prostate) was over 25 µM. It also gave a GI50 (NCI-H460 lung) of 7.26 µM, a TGI (NCI-H460 lung) of over 25 µM and a GI50 (SW-620 colon) of 8.57 µM. The TGI (SW-620 colon) was over 25 µM, the GI50 (RPMI-8226 leukemia) was 5.38 µM and the TGI (RPMI-8226 leukemia) was 20.4 µM. It also gave a GI50 (NCI-H23 lung) of 11.3 µM, a TGI (NCI-H23 lung) of over 25 µM and a GI50 (LOX IMVI melanoma) of 5.88 µM. For the same compound, the TGI (LOX IMVI melanoma) was over 25 µM, the GI50 (NCI-H522 lung) was 0.195 µM and the TGI (NCI-H522 lung) was 4.26 µM. For the same compound, the GI50 (NCI/ADR-RES ovarian) was 9.55 µM, the TGI (NCI/ADR-RES ovarian) was over 25 µM and the GI50 (SNB-19 CNS) was 7.71 µM. It also gave a TGI (SNB-19 CNS) of over 25 µM, a GI50 (U251 CNS) of 6.03 µM and a TGI (U251 CNS) of over 25 µM. The GI50 (MDA-MB-231 breast) was 1.8 µM, the TGI (MDA-MB-231 breast) was over 25 µM and the GI50 (MALME-3M melanoma) was 4.79 µM. The TGI (MALME-3M melanoma) was 23.7 µM, the GI50 (COLO 205 colon) was 3.78 µM and the TGI (COLO 205 colon) was 8.7 µM. It also gave a GI50 (OVCAR-8 ovarian) of 6.4 µM, a TGI (OVCAR-8 ovarian) of over 25 µM and a GI50 (HL-60(TB) leukemia) of 6.74 µM. It also gave a TGI (HL-60(TB) leukemia) of over 20.4 µM, a GI50 (DU-145 prostate) of 2.16 µM and a TGI (DU-145 prostate) of over 22.9 µM. The GI50 (NCI-H226 lung) was 5.37 µM, the TGI (NCI-H226 lung) was over 25 µM and the GI50 (SF-539 CNS) was 4.18 µM. For the same compound, the TGI (SF-539 CNS) was over 19.1 µM, the GI50 (A549 NSCLC) was 3.71 µM and the TGI (A549 NSCLC) was over 25 µM. For the same compound, the GI50 (SR leukemia) was 7.53 µM, the TGI (SR leukemia) was over 25 µM and the GI50 (HCC-2998 colon) was 5 µM. For the same compound, the TGI (HCC-2998 colon) was over 25 µM, the GI50 (UACC-257 melanoma) was 7.45 µM and the TGI (UACC-257 melanoma) was over 25 µM. It also gave a GI50 (786-0 renal) of 7.16 µM, a TGI (786-0 renal) of over 25 µM and a GI50 (EKVX NSCLC) of 0.234 µM. For the same compound, the TGI (EKVX NSCLC) was over 11.4 µM, the GI50 (OVCAR-4 ovarian) was 5.3 µM and the TGI (OVCAR-4 ovarian) was over 25 µM. The GI50 (TK-10 renal) was 0.131 µM, the TGI (TK-10 renal) was 1.83 µM and the GI50 (SN12C renal) was 2.46 µM. The TGI (SN12C renal) was over 25 µM, the GI50 (ACHN renal) was 0.586 µM and the TGI (ACHN renal) was over 25 µM. The GI50 (HCT-116 colon) was 3.74 µM, the TGI (HCT-116 colon) was over 25 µM and the GI50 (MCF7 breast) was 5.91 µM. For the same compound, the TGI (MCF7 breast) was over 25 µM, the GI50 (SK-MEL-2 melanoma) was 4.31 µM and the TGI (SK-MEL-2 melanoma) was 19.3 µM. It also gave a GI50 (BT-549 breast) of 3.35 µM, a TGI (BT-549 breast) of 9.29 µM and a GI50 (HS 578T breast) of 0.78 µM. The TGI (HS 578T breast) was over 17 µM, the GI50 (K-562 leukemia) was 6.99 µM and the TGI (K-562 leukemia) was over 25 µM. For the same compound, the GI50 (A498 renal) was 0.998 µM and the TGI (A498 renal) was 15.3 µM.
